Results published in PMC9386018, “A lymphatic-absorbed multi-targeted kinase inhibitor for myelofibrosis therapy” (Nature Communications, 2022).
Several values for one entry are separate records, joined by “and”; a condition that tells them apart may be missing. Equal values may be shown once.

Assay: Pharmacokinetic analysis of plasma after intravenous and oral dosing
Settings: for concentration at 0.167 h / concentration at 0.5 h / concentration at 1 h / concentration at 2 h / concentration at 4 h / concentration at 7 h / concentration at 16 h: female, CD-1, mouse, plasma
Protocol: Samples were centrifuged at 15,000 rpm for 10 min, then blood plasma was collected from the upper layer and frozen at −80 °C until analysis. […] Sample processing, chromatographic separation, MS, and MS/MS parameters used for analysis were determined by the core. […] Standard curves for peak area ratio of compound to internal standard (Astd/AIstd) vs. compound concentration were used to determine sample analyte concentrations through linear regression with a weighting average of 1/X^2. […] All pharmacokinetic parameters were estimated using non-compartmental analysis with Phoenix/WINONLIN, and provided by the core along with calculated sample analyte concentrations. Data was generated from n ≥ 3 individual animals sampled per time point per compound for each method of dosing.

SMILES: O=C(O)c1ccc(F)c(F)c1Nc1ccc(I)cc1F [PD315209, reference compound]
- Concentration (Supplementary Figure 6a, i.v., Time 0.167 h, individual replicates): 779 ng/mL and 846 ng/mL
- Concentration (Supplementary Figure 6a, i.v., Time 0.5 h, individual replicates): 677 ng/mL and 624 ng/mL
- Concentration (Supplementary Figure 6a, i.v., Time 1 h, individual replicates): 440 ng/mL and 492 ng/mL
- Concentration (Supplementary Figure 6a, i.v., Time 2 h, individual replicates): 490 ng/mL and 355 ng/mL
- Concentration (Supplementary Figure 6a, i.v., Time 4 h, individual replicates): 243 ng/mL and 164 ng/mL
- Concentration (Supplementary Figure 6a, i.v., Time 7 h, individual replicates): 72.7 ng/mL and 57.8 ng/mL
- Concentration (Supplementary Figure 6a, i.v., Time 16 h, individual replicates): 4.08 ng/mL
- Concentration (Supplementary Figure 6a, i.v., Time 24 h, individual replicates): 5.08 ng/mL and 1.82 ng/mL and 2.98 ng/mL
- Concentration (Supplementary Figure 6a, p.o., Time 0.167 h, individual replicates): 507 ng/mL and 993 ng/mL and 283 ng/mL
- Concentration (Supplementary Figure 6a, p.o., Time 0.5 h, individual replicates): 891 ng/mL and 764 ng/mL
- Concentration (Supplementary Figure 6a, p.o., Time 1 h, individual replicates): 1540 ng/mL and 1240 ng/mL
- Concentration (Supplementary Figure 6a, p.o., Time 2 h, individual replicates): 490 ng/mL and 399 ng/mL
- Concentration (Supplementary Figure 6a, p.o., Time 4 h, individual replicates): 412 ng/mL and 334 ng/mL
- Concentration (Supplementary Figure 6a, p.o., Time 7 h, individual replicates): 463 ng/mL and 555 ng/mL
- Concentration (Supplementary Figure 6a, p.o., Time 16 h, individual replicates): 362 ng/mL and 491 ng/mL
- Concentration (Supplementary Figure 6a, p.o., Time 24 h, individual replicates): 443 ng/mL and 223 ng/mL and 212 ng/mL
- concentration at 0.167 h (iv, 15 mg kg^−1, Concentration, Supplementary Figure 6a, Time 0.167 h, individual replicates): 934 ng/mL
- concentration at 0.5 h (iv, 15 mg kg^−1, Concentration, Supplementary Figure 6a, Time 0.5 h, individual replicates): 923 ng/mL
- concentration at 1 h (iv, 15 mg kg^−1, Concentration, Supplementary Figure 6a, Time 1 h, individual replicates): 602 ng/mL
- concentration at 2 h (iv, 15 mg kg^−1, Concentration, Supplementary Figure 6a, Time 2 h, individual replicates): 572 ng/mL
- concentration at 4 h (iv, 15 mg kg^−1, Concentration, Supplementary Figure 6a, Time 4 h, individual replicates): 282 ng/mL
- concentration at 7 h (iv, 15 mg kg^−1, Concentration, Supplementary Figure 6a, Time 7 h, individual replicates): 99.2 ng/mL
- concentration at 16 h (iv, 15 mg kg^−1, Concentration, Supplementary Figure 6a, Time 16 h, individual replicates): 7.87 ng/mL
- concentration at 0.167 h (iv, 15 mg kg^−1, Concentration, Time 0.167 h, individual animals, Supplementary Figure 12a): 306 ng/mL
- concentration at 0.167 h (iv, 15 mg kg^−1, Concentration, Time 0.167 h, individual animals, Supplementary Figure 12b): 641 ng/mL
- concentration at 0.5 h (iv, 15 mg kg^−1, Concentration, Time 0.5 h, individual animals, Supplementary Figure 12a): 175 ng/mL
- concentration at 0.5 h (iv, 15 mg kg^−1, Concentration, Time 0.5 h, individual animals, Supplementary Figure 12b): 938 ng/mL
- concentration at 1 h (iv, 15 mg kg^−1, Concentration, Time 1 h, individual animals, Supplementary Figure 12a): 146 ng/mL
- concentration at 1 h (iv, 15 mg kg^−1, Concentration, Time 1 h, individual animals, Supplementary Figure 12b): 783 ng/mL
- concentration at 2 h (iv, 15 mg kg^−1, Concentration, Time 2 h, individual animals, Supplementary Figure 12a): 86.8 ng/mL
- concentration at 2 h (iv, 15 mg kg^−1, Concentration, Time 2 h, individual animals, Supplementary Figure 12b): 510 ng/mL
- concentration at 4 h (iv, 15 mg kg^−1, Concentration, Time 4 h, individual animals, Supplementary Figure 12b): 322 ng/mL
- concentration at 7 h (iv, 15 mg kg^−1, Concentration, Time 7 h, individual animals, Supplementary Figure 12a): 22.8 ng/mL
- concentration at 0.167 h (po, 200 mg kg^−1, Concentration, Time 0.167 h, individual animals, Supplementary Figure 12a): 155 ng/mL
- concentration at 0.5 h (po, 200 mg kg^−1, Concentration, Time 0.5 h, individual animals, Supplementary Figure 12a): 968 ng/mL
- concentration at 0.5 h (po, 200 mg kg^−1, Concentration, Time 0.5 h, individual animals, Supplementary Figure 12b): 692 ng/mL
- concentration at 1 h (po, 200 mg kg^−1, Concentration, Time 1 h, individual animals, Supplementary Figure 12b): 841 ng/mL
- concentration at 2 h (po, 200 mg kg^−1, Concentration, Time 2 h, individual animals, Supplementary Figure 12a): 2500 ng/mL
- concentration at 4 h (po, 200 mg kg^−1, Concentration, Time 4 h, individual animals, Supplementary Figure 12a): 3420 ng/mL
- concentration at 7 h (po, 200 mg kg^−1, Concentration, Time 7 h, individual animals, Supplementary Figure 12a): 1870 ng/mL
- concentration at 7 h (po, 200 mg kg^−1, Concentration, Time 7 h, individual animals, Supplementary Figure 12b): 1070 ng/mL
- concentration at 16 h (po, 200 mg kg^−1, Concentration, Time 16 h, individual animals, Supplementary Figure 12b): 2410 ng/mL
- concentration at 0.5 h (po, 400 mg kg^−1, Concentration, Supplementary Figure 6a, Time 0.5 h, individual replicates): 644 ng/mL
- concentration at 1 h (po, 400 mg kg^−1, Concentration, Supplementary Figure 6a, Time 1 h, individual replicates): 1700 ng/mL
- concentration at 2 h (po, 400 mg kg^−1, Concentration, Supplementary Figure 6a, Time 2 h, individual replicates): 787 ng/mL
- concentration at 4 h (po, 400 mg kg^−1, Concentration, Supplementary Figure 6a, Time 4 h, individual replicates): 398 ng/mL
- concentration at 7 h (po, 400 mg kg^−1, Concentration, Supplementary Figure 6a, Time 7 h, individual replicates): 473 ng/mL
- concentration at 16 h (po, 400 mg kg^−1, Concentration, Supplementary Figure 6a, Time 16 h, individual replicates): 572 ng/mL
- Concentration (i.v., Time 0.167 h, individual animals, Supplementary Figure 12a): 324 ng/mL and 426 ng/mL
- Concentration (i.v., Time 0.5 h, individual animals, Supplementary Figure 12a): 148 ng/mL and 180 ng/mL
- Concentration (i.v., Time 1 h, individual animals, Supplementary Figure 12a): 168.8 ng/mL and 187.8 ng/mL
- Concentration (i.v., Time 1 h, individual animals, Supplementary Figure 12b): 1480 ng/mL and 1110 ng/mL
- Concentration (i.v., Time 2 h, individual animals, Supplementary Figure 12a): 50 ng/mL and 64 ng/mL
- Concentration (i.v., Time 2 h, individual animals, Supplementary Figure 12b): 498 ng/mL and 604 ng/mL
- Concentration (i.v., Time 4 h, individual animals, Supplementary Figure 12a): 45.8 ng/mL and 21 ng/mL and 26 ng/mL
- Concentration (i.v., Time 4 h, individual animals, Supplementary Figure 12b): 244 ng/mL and 464 ng/mL
- Concentration (i.v., Time 7 h, individual animals, Supplementary Figure 12a): 12.78 ng/mL
- Concentration (i.v., Time 7 h, individual animals, Supplementary Figure 12b): 206 ng/mL and 134 ng/mL and 272 ng/mL
- Concentration (i.v., Time 16 h, individual animals, Supplementary Figure 12b): 25.9 ng/mL and 66.9 ng/mL and 61.2 ng/mL
- Concentration (i.v., Time 24 h, individual animals, Supplementary Figure 12b): 6.26 ng/mL and 32.6 ng/mL and 25 ng/mL
- Concentration (p.o., Time 0.167 h, individual animals, Supplementary Figure 12a): 145.8 ng/mL and 107.6 ng/mL and 206 ng/mL and 132.6 ng/mL and 193 ng/mL
- Concentration (p.o., Time 0.167 h, individual animals, Supplementary Figure 12b): 181 ng/mL
- Concentration (p.o., Time 0.5 h, individual animals, Supplementary Figure 12a): 788 ng/mL and 600 ng/mL
- Concentration (p.o., Time 1 h, individual animals, Supplementary Figure 12a): 1006 ng/mL and 784 ng/mL and 260 ng/mL and 1464 ng/mL and 1172 ng/mL and 1344 ng/mL
- Concentration (p.o., Time 2 h, individual animals, Supplementary Figure 12a): 2100 ng/mL and 1302 ng/mL
- Concentration (p.o., Time 4 h, individual animals, Supplementary Figure 12a): 2980 ng/mL and 1762 ng/mL
- Concentration (p.o., Time 7 h, individual animals, Supplementary Figure 12a): 1768 ng/mL and 1234 ng/mL
- Concentration (p.o., Time 16 h, individual animals, Supplementary Figure 12a): 414 ng/mL and 996 ng/mL and 1288 ng/mL
- Concentration (p.o., Time 24 h, individual animals, Supplementary Figure 12a): 996 ng/mL and 508 ng/mL and 280 ng/mL
